According to patent US6616925B1, “Combined preparation for the treatment of neoplasic diseases or of infectious diseases” (I.D.M. Immuno-Designed Molecules, priority 1998, dated 2003):

What was measured:
[1] = tested on: human carcinoma solid tumors; assay: nude mice inoculated with human carcinoma solid tumors, subcutaneous tumor size; type: in vivo; conditions: after macrophage treatment; drugs used alone or in combination
Text: 2) Nude mice inoculated with human carcinoma solid tumors are, initially treated with cytotoxic drugs (Adriamycin, Etretinate, Taxotere), used alone or in combination.

solid carcinoma = assay: C57B16 mice bearing solid carcinoma, apoptosis-inducing drug then monocyte derived cells; type: in vivo; conditions: drug intraperitonealy, after 24 h 0.1 million monocyte derived cells in tumor periphery; observed only after combined treatment
Protocol: 7) C57B16 mice bearing solid carcinoma are injected intraperitonealy with a drug inducing apoptosis (1 mg mitomycin C or 0.1 mg sodium butyrate). After 24 h, mice are injected with 0.1 million monocyte derived cells in tumor periphery. […] In another protocol, carcinoma cells are treated in vitro with 0.01 mM sodium butyrate, and then submitted to phagocytosis by murine monocyte derived cells.

COc1cccc2c1C(=O)c1c(O)c3c(c(O)c1C2=O)C[C@@](O)(C(=O)CO)C[C@@H]3O[C@H]1C[C@H](N)[C@H](O)[C@H](C)O1 [Adriamycin]
antitumoral effect of second treatment with the same cytotoxic drugs (subcutaneous tumor size) [1]: further antitumoral effect

CC(=O)O[C@@]12CO[C@@H]1C[C@H](O)[C@@]1(C)C(=O)[C@H](O)C3=C(C)[C@@H](OC(=O)[C@H](O)[C@@H](NC(=O)OC(C)(C)C)c4ccccc4)C[C@@](O)([C@@H](OC(=O)c4ccccc4)[C@H]21)C3(C)C [Taxotere]
antitumoral effect of second treatment with the same cytotoxic drugs (subcutaneous tumor size) [1]: further antitumoral effect

CCCC(=O)[O-].[Na+] [sodium butyrate]
tumor outcome after combined treatment (solid carcinoma): Tumor regression and protection against further tumor challenge

CCOC(=O)/C=C(C)/C=C/C=C(C)/C=C/c1c(C)cc(OC)c(C)c1C [Etretinate]
antitumoral effect of second treatment with the same cytotoxic drugs (subcutaneous tumor size) [1]: further antitumoral effect

CO[C@@]12[C@H](COC(N)=O)C3=C(C(=O)C(C)=C(N)C3=O)N1C[C@@H]1N[C@@H]12 [mitomycin C]
tumor outcome after combined treatment (solid carcinoma): Tumor regression and protection against further tumor challenge
